According to ChEMBL document CHEMBL1135650, “Synthesis of classical and nonclassical, partially restricted, linear, tricyclic 5-deaza antifolates” (J Med Chem, 2002):

Legend:
[1] = molecular target: T1, Bifunctional dihydrofolate reductase-thymidylate synthase (Toxoplasma gondii, UniProt Q07422)
T1 sequence (Q07422 whole entry): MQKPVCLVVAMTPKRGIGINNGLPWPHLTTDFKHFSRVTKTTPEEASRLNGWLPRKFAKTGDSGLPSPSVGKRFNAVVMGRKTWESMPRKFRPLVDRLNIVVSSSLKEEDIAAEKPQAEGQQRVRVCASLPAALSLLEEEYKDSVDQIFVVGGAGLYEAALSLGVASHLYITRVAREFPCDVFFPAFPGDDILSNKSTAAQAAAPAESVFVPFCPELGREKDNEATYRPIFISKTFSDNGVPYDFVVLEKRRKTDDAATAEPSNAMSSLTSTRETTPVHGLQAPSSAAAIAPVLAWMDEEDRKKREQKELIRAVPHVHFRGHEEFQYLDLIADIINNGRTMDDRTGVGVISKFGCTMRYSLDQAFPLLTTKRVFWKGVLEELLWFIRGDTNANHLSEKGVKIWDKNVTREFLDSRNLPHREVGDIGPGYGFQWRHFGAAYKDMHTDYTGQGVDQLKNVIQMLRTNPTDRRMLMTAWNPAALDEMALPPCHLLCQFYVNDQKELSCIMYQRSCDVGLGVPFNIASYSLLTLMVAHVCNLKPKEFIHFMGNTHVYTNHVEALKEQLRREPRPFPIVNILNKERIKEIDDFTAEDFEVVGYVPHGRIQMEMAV
Description: Inhibitory activity against Toxoplasma gondii (tg) Dihydrofolate reductase (DHFR)

Dihydrofolate reductase [2] = molecular target: T2, Dihydrofolate reductase (Homo sapiens, UniProt P00374)
T2 sequence (P00374 whole entry): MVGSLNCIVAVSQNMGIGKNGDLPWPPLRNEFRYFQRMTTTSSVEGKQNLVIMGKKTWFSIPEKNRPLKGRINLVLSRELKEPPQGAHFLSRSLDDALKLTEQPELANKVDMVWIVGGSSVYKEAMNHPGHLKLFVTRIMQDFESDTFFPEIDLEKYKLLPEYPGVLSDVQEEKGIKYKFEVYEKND
Description: Inhibitory activity against recombinant human Dihydrofolate reductase

Dihydrofolate reductase [3] = molecular target: T3, Dihydrofolate reductase (Pneumocystis carinii, UniProt P16184)
T3 sequence (P16184 whole entry): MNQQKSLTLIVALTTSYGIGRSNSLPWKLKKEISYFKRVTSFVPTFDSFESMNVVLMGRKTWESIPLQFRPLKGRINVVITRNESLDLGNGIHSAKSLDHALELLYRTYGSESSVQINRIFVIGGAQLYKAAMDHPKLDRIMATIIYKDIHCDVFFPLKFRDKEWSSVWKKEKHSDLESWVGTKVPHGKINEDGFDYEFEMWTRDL
Description: Inhibitory activity against pneumocystis carinii Dihydrofolate reductase

[4] = molecular target: T4, Dihydrofolate reductase (Pneumocystis carinii) (UniProt P16184); assay: Percent Inhibition activity against pneumocystis carinii Dihydrofolate reductase; settings: concentration not given here
T4 sequence (whole entry): T3 sequence (P16184 whole entry)

[5] = Kinetic parameter Vmax of the compound; format: ADME
[6] = Kinetic constant Vmax relative to aminopterin; format: ADME
[7] = Concentration required to decrease cell growth by 50% in methotrexate-resistant CCRF-CEM human leukemia subline (R30dm); format: functional, cell-based
[8] = system: Panel leukemia (Carcinoma cell lines); assay: In vitro inhibitory activity against the growth of tumor cells in leukemia cells;Value ranges from (10e-6 to 10e-7); format: functional; settings: Homo sapiens
[9] = Concentration required to decrease cell growth by 50% in methotrexate-resistant CCRF-CEM human leukemia subline (R1); format: functional, cell-based
[10] = Concentration required to decrease cell growth by 50% in methotrexate-resistant CCRF-CEM human leukemia subline (R2); format: functional, cell-based
CCRF-CEM = assay: Concentration required to decrease cell growth by 50% in CCRF-CEM human leukemia cell line; format: functional, cell-based
[11] = Selectivity ratio as the ratio of IC50 value against recombinant human (rh) DHFR to that of Toxoplasma gondii (tg) DHFR.; format: functional
[12] = Selectivity ratio as the ratio of IC50 value against recombinant human (rh) DHFR to that of Escherichia coli (ec) DHFR.; format: functional
[13] = Selectivity ratio as the ratio of IC50 value against recombinant human (rh) DHFR to that of pneumocystis carinii (pc ) DHFR.; format: functional
[14] = substrate: Nc1nc(N)c2cc3c(nc2n1)CCN(Cc1ccc(C(=O)N[C@@H](CCC(=O)O)C(=O)O)cc1)C3; assay: (§1) Ability to act as a substrate for human folyglutamate synthetase (FPGS)
[15] = substrate: Nc1nc(N)c2nc(CNc3ccc(C(=O)N[C@@H](CCC(=O)O)C(=O)O)cc3)cnc2n1; assay: as §1

COc1ccc(CN2CCc3nc4nc(N)nc(N)c4cc3C2)cc1
IC50 [1]: 2900 nM
IC50 (Dihydrofolate reductase [2]): 27000 nM
IC50 (Dihydrofolate reductase [3]): > 15000 nM
inhibition [4]: 35%

Nc1nc(N)c2nc(CNc3ccc(C(=O)N[C@@H](CCC(=O)O)C(=O)O)cc3)cnc2n1 [AMINOPTERIN]
Vmax [5]: 1

Nc1nc(N)c2cc3c(nc2n1)CCN(Cc1ccc(C(=O)N[C@@H](CCC(=O)O)C(=O)O)cc1)C3
Vmax rel [6]: 1.07
EC50 [7]: 1900 nM
GI50 [8]: 1000 nM
IC50 (Dihydrofolate reductase [2]): 5400 nM
IC50 (Dihydrofolate reductase [3]): 1800 nM
EC50 [9]: > 10000 nM
EC50 [10]: > 10000 nM
EC50 (CCRF-CEM): 771 nM

Nc1nc(N)c2cc3c(nc2n1)CCN(C(=O)OCc1ccccc1)C3
IC50 [1]: 22000 nM
GI50 [8]: 1000 nM
IC50 (Dihydrofolate reductase [2]): 30000 nM
Ratio [11]: 1.3
IC50 (Dihydrofolate reductase [3]): > 15000 nM
Ratio [12]: 10
inhibition [4]: 35%

CN(Cc1cnc2nc(N)nc(N)c2n1)c1ccc(C(=O)N[C@@H](CCC(=O)O)C(=O)O)cc1 [METHOTREXATE]
Vmax [6]: 0.82
EC50 [7]: 16 nM
EC50 [10]: 1700 nM
EC50 (CCRF-CEM): 12 nM

COc1cc(CN2CCc3nc4nc(N)nc(N)c4cc3C2)cc(OC)c1
IC50 [1]: 2700 nM
IC50 (Dihydrofolate reductase [2]): 22000 nM
IC50 (Dihydrofolate reductase [3]): 14000 nM

Nc1nc(N)c2cc3c(nc2n1)CCN(Cc1ccc(Cl)c(Cl)c1)C3
IC50 [1]: 5100 nM
IC50 (Dihydrofolate reductase [2]): > 26000 nM
Ratio [13]: > 5.2
Ratio [11]: > 5
IC50 (Dihydrofolate reductase [3]): 5000 nM
Ratio [12]: > 8.6

Nc1nc(N)c2cc3c(nc2n1)CCN(Cc1ccccc1)C3
IC50 [1]: 1400 nM
GI50 [8]: 1000 nM
IC50 (Dihydrofolate reductase [2]): 32000 nM
IC50 (Dihydrofolate reductase [3]): 16000 nM

Nc1nc(N)c2cc3c(nc2n1)CCN(Cc1ccc(Cl)cc1Cl)C3
IC50 [1]: 2100 nM
IC50 (Dihydrofolate reductase [2]): 1300 nM
IC50 (Dihydrofolate reductase [3]): 4000 nM

B1: Folylpolyglutamate synthase, mitochondrial (Homo sapiens), Q05932 (protein)
chain: MSRARSHLRAALFLAAASARGITTQVAARRGLSAWPVPQEPSMEYQDAVRMLNTLQTNAGYLEQVKRQRGDPQTQLEAMELYLARSGLQVEDLDRLNIIHVTGTKGKGSTCAFTECILRSYGLKTGFFSSPHLVQVRERIRINGQPISPELFTKYFWRLYHRLEETKDGSCVSMPPYFRFLTLMAFHVFLQEKVDLAVVEVGIGGAYDCTNIIRKPVVCGVSSLGIDHTSLLGDTVEKIAWQKGGIFKQGVPAFTVLQPEGPLAVLRDRAQQISCPLYLCPMLEALEEGGPPLTLGLEGEHQRSNAALALQLAHCWLQRQDRHGAGEPKASRPGLLWQLPLAPVFQPTSHMRLGLRNTEWPGRTQVLRRGPLTWYLDGAHTASSAQACVRWFRQALQGRERPSGGPEVRVLLFNATGDRDPAALLKLLQPCQFDYAVFCPNLTEVSSTGNADQQNFTVTLDQVLLRCLEHQQHWNHLDEEQASPDLWSAPSPEPGGSASLLLAPHPPHTCSASSLVFSCISHALQWISQGRDPIFQPPSPPKGLLTHPVAHSGASILREAAAIHVLVTGSLHLVGGVLKLLEPALSQ
Km [14]: 27.3 µM
Km [15]: 2.15 µM
